The text below walks through data of publication PMC3918733, “The Enzymatic Decolorization of Textile Dyes by the Immobilized Polyphenol Oxidase from Quince Leaves” (The Scientific World Journal, 2014).

The experiment concerns T1, polyphenol oxidase (PPO) from quince leaves.
T1 construct: isoenzyme not identified; free enzyme
As to the kind of experiment: absorbance at […] nm, Lineweaver-Burk. It counts as biochemical, Cydonia oblonga. The conditions noted are these: free enzyme, partially purified; optimum pH and temperature (pH 7.5, 30 °C), phosphate buffer.

For `Oc1ccccc1O` [catechol], the Km is 5.86 mM.

The Km is the substrate concentration at which the rate is half of its maximum.
